The values that follow come from patent publication US11149011B2, “Compounds and methods for IDO and TDO modulation, and indications therefor” (Plexxikon Inc., priority 2018, dated 2021).

SMILES strings stand for the structures.

For assay [1], the target named is T1, IDO1 (Homo sapiens, UniProt P14902).
T1 construct: His tag (N); made in house; host or cells: E. coli
Put plainly: IDO enzymatic assay. The format is biochemical. The following applies: geometric mean; read-out: IDO1 GMean: IC50 (μM) (Biochemical Assay). A digest of the protocol: (§1)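 Kynurenine formed after TCA hydrolysis (30 min, 50 °C) was quantified relative to full-reaction and no-enzyme controls, and IC50s were fitted. TDO reactions used 1 nM enzyme with 350 μM Trp and 0.4 μM methylene blue for 70 min; IDO reactions used 6 nM enzyme, 10 μM Trp, 5 μM methylene blue for 20 min; both at pH 6.5, room temperature.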

For assay [2], the target named is T2, TDO (Homo sapiens, UniProt P48775).
T2 construct: His tag (N); made in house; host or cells: E. coli
T2 sequence (P48775 whole entry): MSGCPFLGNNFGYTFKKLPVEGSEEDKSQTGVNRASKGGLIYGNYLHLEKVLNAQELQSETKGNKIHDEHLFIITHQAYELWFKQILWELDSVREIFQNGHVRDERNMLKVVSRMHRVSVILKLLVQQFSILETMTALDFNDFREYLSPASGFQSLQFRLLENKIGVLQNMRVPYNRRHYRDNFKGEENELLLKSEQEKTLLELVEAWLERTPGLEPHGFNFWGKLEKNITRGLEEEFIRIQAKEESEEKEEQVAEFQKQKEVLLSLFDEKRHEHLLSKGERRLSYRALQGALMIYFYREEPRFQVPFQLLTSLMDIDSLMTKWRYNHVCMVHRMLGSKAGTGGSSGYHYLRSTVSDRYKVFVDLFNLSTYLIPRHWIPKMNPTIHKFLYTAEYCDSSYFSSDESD
Put plainly: TDO enzymatic assay. The following applies: geometric mean; read-out: TDO GMean: IC50 (μM) (Biochemical Assay). A digest of the protocol:
as §1

Assay [3] has as its target T3, IDO1-expressing HEK293 cell clones (Homo sapiens, UniProt P14902).
T3 construct: expressed in transfected cells; host or cells: HEK293
Nature of the assay: Cell based kynurenine assay, IDO1-expressing HEK293 cell clones. The note with it: HEK293 cells, 24 hours of incubation, geometric mean; read-out: HEK293 IDO1 Kynurenine GMean IC50 (μM) (Cellular Assay). The method, boiled down:
(§2)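 IC50s come from nonlinear regression of % inhibition of kynurenine in culture supernatant after 24 hours of compound exposure. Controls were 0.2% DMSO-treated cells and media alone. Cells were stable human IDO1- or TDO-expressing HEK293 clones (CMV promoter), plated at 2.5×10^4 per well.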

The target in assay [4] is T4, TDO-expressing HEK293 cell clones (Homo sapiens, UniProt P48775).
T4 construct: expressed in transfected cells; host or cells: HEK293
T4 sequence (P48775 whole entry): as above
Put plainly: Cell based kynurenine assay, TDO-expressing HEK293 cell clones. The following applies: HEK293 cells, 24 hours of incubation, geometric mean; read-out: HEK293 TDO Kynurenine GMean IC50 (μM) (Cellular Assay). The method, boiled down:
as §2

As a reminder, the IC50 is the midpoint of a concentration-inhibition curve.

T1 sequence (P14902 whole entry): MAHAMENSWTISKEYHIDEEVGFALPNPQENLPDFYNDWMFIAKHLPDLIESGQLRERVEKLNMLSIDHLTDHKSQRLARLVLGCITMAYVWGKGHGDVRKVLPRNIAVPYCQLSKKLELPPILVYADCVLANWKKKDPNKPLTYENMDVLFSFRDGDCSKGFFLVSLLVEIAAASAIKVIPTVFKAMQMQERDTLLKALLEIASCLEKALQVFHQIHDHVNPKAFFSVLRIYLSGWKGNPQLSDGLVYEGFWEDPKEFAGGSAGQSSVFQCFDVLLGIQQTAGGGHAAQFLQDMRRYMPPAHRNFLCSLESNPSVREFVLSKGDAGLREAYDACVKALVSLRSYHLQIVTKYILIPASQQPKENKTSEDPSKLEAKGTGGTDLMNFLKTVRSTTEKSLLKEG
T3 sequence (P14902 whole entry): as above

Take `CC(C)(C1CCN(C(=O)Nc2cccnc2)CC1)C(O)c1cc(Cl)cc2[nH]ncc12` (stereo not drawn) [Compound P-0075, 4-(1-(6-chloro-1H-indazol-4-yl)-1-hydroxy-2-methylpropan-2-yl)-N-(pyridin-3-yl)piperidine-1-carboxamide]: the IC50 in assay [1] was 0.0001 to 10 µM; in assay [2] it was 0.0001 to 10 µM; in assay [3], more than 10 µM; in assay [4] it was 0.0001 to 10 µM.
Regarding `CC(C)(C1CCN(C(=O)NCCF)CC1)C(O)c1cc(Cl)cc2[nH]ncc12` (stereo not drawn) [Compound P-0110, 4-(1-(6-chloro-1H-indazol-4-yl)-1-hydroxy-2-methylpropan-2-yl)-N-(2-fluoroethyl)piperidine-1-carboxamide], the IC50 in assay [1] is 0.0001 to 10 µM; in assay [2], 0.0001 to 10 µM; in assay [3], more than 10 µM; in assay [4], 0.0001 to 10 µM.
As to `CNC(=O)CNC(=O)N1CCC(C(C)(C)C(O)c2cc(Cl)cc3[nH]ncc23)CC1` (stereo not drawn) [Compound P-0089, 4-(1-(6-chloro-1H-indazol-4-yl)-1-hydroxy-2-methylpropan-2-yl)-N-(2-(methylamino)-2-oxoethyl)piperidine-1-carboxamide], the 50% inhibitory concentration (IC50) in assay [1], in assay [2], in assay [3] and in assay [4] was 0.0001 to 10 µM each time.
Take `CC(C)(C1CCN(C(=O)NCC2CC2)CC1)C(O)c1cc(Cl)cc2[nH]ncc12` (stereo not drawn) [Compound P-0080, 4-(1-(6-chloro-1H-indazol-4-yl)-1-hydroxy-2-methylpropan-2-yl)-N-(cyclopropylmethyl)piperidine-1-carboxamide]: the IC50 in assay [1], in assay [2], in assay [3] and in assay [4] was 0.0001 to 10 µM each time.
For `CC(C)(C1CCN(C(=O)Nc2ccc(Cl)nc2)CC1)[C@H](O)c1cc(Cl)cc2cn[nH]c12` [Compound P-0032, (S)-4-(1-(5-chloro-1H-indazol-7-yl)-1-hydroxy-2-methylpropan-2-yl)-N-(6-chloropyridin-3-yl)piperidine-1-carboxamide], the IC50 is 0.0001 to 10 µM in assay [1], 0.0001 to 10 µM in assay [2], 0.0001 to 10 µM in assay [3] and more than 10 µM in assay [4].
For `N#CCCCNC(=O)N1CCC(C(F)(F)C(=O)c2c(F)c(Cl)cc3cn[nH]c23)CC1` [Compound P-0042, 4-(2-(5-chloro-6-fluoro-1H-indazol-7-yl)-1,1-difluoro-2-oxoethyl)-N-(3-cyanopropyl)piperidine-1-carboxamide], the IC50 in assay [1], in assay [2], in assay [3] and in assay [4] was 0.0001 to 10 µM in each case.
With `CC(C)(C1CCN(C(=O)NC2CC(F)(F)C2)CC1)C(O)c1cc(Cl)cc2[nH]ncc12` (stereo not drawn) [Compound P-0094, 4-(1-(6-chloro-1H-indazol-4-yl)-1-hydroxy-2-methylpropan-2-yl)-N-(3,3-difluorocyclobutyl)piperidine-1-carboxamide], the IC50 in assay [1], in assay [2], in assay [3] and in assay [4] was 0.0001 to 10 µM each time.
For the compound `OC1(c2cc(Cl)cc3cn[nH]c23)CCC(F)(F)CC1` [Compound P-0008, 1-(5-chloro-1H-indazol-7-yl)-4,4-difluorocyclohexan-1-ol], the IC50 in assay [1], in assay [2], in assay [3] and in assay [4] was 0.0001 to 10 µM throughout.
With `CC(C)(C1CCN(C(=O)NC2CC2)CC1)C(O)c1cc(Cl)cc2[nH]ncc12` (stereo not drawn) [Compound P-0081, 4-(1-(6-chloro-1H-indazol-4-yl)-1-hydroxy-2-methylpropan-2-yl)-N-cyclopropylpiperidine-1-carboxamide], the IC50 in assay [1], in assay [2], in assay [3] and in assay [4] was 0.0001 to 10 µM each time.
